The results in this text go back to article PMC5421785, “Citrullination only infrequently impacts peptide binding to HLA class II MHC” (PLoS ONE, 2017).

Where two headings read alike, the source gives them in different places. Ends that are not written are not given here. Where only a bound is given, the exact number is not on record here.

Usually IC50 stands for the concentration that inhibits the measured activity by half.

The target in one assay is T1, HLA-DRB1*01:01 (Homo sapiens, UniProt P01903+P01911, A100R/D57E/F55L/F60I/F76Y/I96L/L162R/M171V/P40L/Q125E/R42F/V115G/Y59C).
T1 construct: EBV transformed homozygous cell lines were used as sources of MHC molecules; endogenous in cells; host or cells: EBV transformed homozygous cell lines
Briefly: HLA class II peptide binding, inhibition of radiolabeled peptide binding to purified MHC. The note with it: read-out: DRB1*01:01 binding capacity, WT peptide (IC50 nM).

In another assay the target is T2, HLA-DRB1*04:01 (Homo sapiens, UniProt P01903+P01911, A100K/A169T/F76Y/I96L/K127E/L162R/M171V/N62H/P40V/Q125Y/R42H/S133A/S149N/S66Y/V115G/V209L/W38E).
T2 construct: EBV transformed homozygous cell lines were used as sources of MHC molecules; endogenous in cells; host or cells: EBV transformed homozygous cell lines
Described as above. The note with it: read-out: DRB1*04:01 binding capacity, WT peptide (IC50 nM).

[1] abbreviates: wild-type (unmodified Arg) 15-mer peptide, purified HLA-DRB1*01:01.
[2] abbreviates: wild-type (unmodified Arg) 15-mer peptide, purified HLA-DRB1*04:01.

Take GIAGAPGFPGPRGPP [Collagen 426 WT]: the IC50 on HLA-DRB1*01:01 (setting [1]) is 239 nM; at HLA-DRB1*04:01 (setting [2]), greater than 40000 nM.
Taken in the same sequence, the figures for GIVGLPGQRGERGFP [Collagen 981 WT] were 6.4 nM and 2450 nM.
As for GLPGAPGLRGLPGKD [Collagen 621 WT], the IC50 at HLA-DRB1*01:01 (setting [1]) is 810 nM; at HLA-DRB1*04:01 (setting [2]), greater than 40000 nM.
On to GPQGARGQPGVMGFP [Collagen 591 WT], for which the IC50 turned out to be 44 nM on HLA-DRB1*01:01 (setting [1]) and 2570 nM at HLA-DRB1*04:01 (setting [2]).
The matching figures for GPRGERGFPGERGSP [Collagen 696 WT]: 11200 nM and greater than 40000 nM.
Taken in the same sequence, the figures for GPSGKDGPKGARGDS [Collagen 921 WT] were greater than 40000 nM and greater than 40000 nM.
On to GPTGVTGPKGARGAQ [Collagen 876 WT], for which the IC50 at HLA-DRB1*01:01 (setting [1]) is 952 nM; at HLA-DRB1*04:01 (setting [2]), greater than 40000 nM.
Regarding IDVDVSKPDLTAALR [Vimentin 256 WT], the IC50 was determined as 1490 nM on HLA-DRB1*01:01 and 21400 nM on HLA-DRB1*04:01.
Turning to KAGEKGLPGAPGLRG [Collagen 616 WT], the IC50 on HLA-DRB1*01:01 (setting [1]) was 363 nM; at HLA-DRB1*04:01 (setting [2]), greater than 40000 nM.
Taken in the same sequence, the figures for LAGQRGIVGLPGQRG [Collagen 976 WT] were 20 nM and 9280 nM.
Take LGPREKGPDPLQYMR [Collagen 1226 WT]: the IC50 at HLA-DRB1*01:01 (setting [1]) is 6720 nM; on HLA-DRB1*04:01 (setting [2]), greater than 40000 nM.
Taken in the same sequence, the figures for LGVMQGPMGPMGPRG [Collagen 196 WT] were 19 nM and greater than 40000 nM.
Regarding LLAELEQLKGQGKSR [Vimentin 131 WT], the IC50 at HLA-DRB1*01:01 is 248 nM; at HLA-DRB1*04:01 it was greater than 40000 nM.
For the sequence LPGARGLTGRPGDAG [Collagen 556 WT], the IC50 at HLA-DRB1*01:01 (setting [1]) is 851 nM; on HLA-DRB1*04:01 (setting [2]), greater than 40000 nM.
Taken in the same sequence, the figures for LPLVDTHSKRTLLIK [Vimentin 431 WT] were 641 nM and 5090 nM.
The matching figures for LVAAVLRCQGQDVQE [Collagen 16 WT]: 21 nM and 4730 nM.
Taken in the same sequence, the figures for MALDIEIATYRKLLE [Vimentin 391 WT] were 86 nM and 5590 nM.
For the sequence MARHLREYQDLLNVK [Vimentin 376 WT], the IC50 on HLA-DRB1*01:01 (setting [1]) was 270 nM; at HLA-DRB1*04:01 (setting [2]), 1780 nM.
Taken in the same sequence, the figures for MIRLGAPQTLVLLTL [Collagen 1 WT] were 315 nM and 7130 nM.
In the case of MSTRSVSSSSYRRMF [Vimentin 1 WT], the IC50 came to 408 nM at HLA-DRB1*01:01 and 491 nM at HLA-DRB1*04:01.
As for NDALRQAKQESTEYR [Vimentin 306 WT], the values for the IC50 at HLA-DRB1*01:01 (setting [1]) and at HLA-DRB1*04:01 (setting [2]) were 15400 nM and greater than 40000 nM, respectively.
Turning to NDKARVEVERDNLAE [Vimentin 166 WT], the IC50 on HLA-DRB1*01:01 was determined as 524 nM; on HLA-DRB1*04:01, 884 nM.
The matching figures for NDRFANYIDKVRFLE [Vimentin 111 WT]: 862 nM and 16400 nM.
For NTLQSFRQDVDNASL [Vimentin 201 WT], the IC50 is 1840 nM at HLA-DRB1*01:01 and 408 nM on HLA-DRB1*04:01.
Taken in the same sequence, the figures for NYIDKVRFLEQQNKI [Vimentin 116 WT] were 72 nM and 824 nM.
As to PGFPGPRGPPGPQGA [Collagen 431 WT], the IC50 at HLA-DRB1*01:01 (setting [1]) and at HLA-DRB1*04:01 (setting [2]) was greater than 40000 nM throughout.
Regarding PGIDMSAFAGLGPRE [Collagen 1216 WT], the IC50 on HLA-DRB1*01:01 (setting [1]) came to 8.7 nM; at HLA-DRB1*04:01 (setting [2]) it was 14100 nM.
As to PGLQGMPGERGAAGI [Collagen 746 WT], the IC50 on HLA-DRB1*01:01 (setting [1]) worked out at 14 nM; on HLA-DRB1*04:01 (setting [2]), 1050 nM.
As for PGLRGLPGKDGETGA [Collagen 626 WT], the IC50 is 259 nM on HLA-DRB1*01:01 (setting [1]) and greater than 40000 nM on HLA-DRB1*04:01 (setting [2]).
The matching figures for PGPAGPTGKQGDRGE [Collagen 1076 WT]: greater than 40000 nM and greater than 40000 nM.
In the case of PGQRGERGFPGLPGP [Collagen 986 WT], the IC50 at HLA-DRB1*01:01 (setting [1]) is 743 nM; at HLA-DRB1*04:01 (setting [2]), greater than 40000 nM.
Take PNFSSLNLRETNLDS [Vimentin 416 WT]: the IC50 on HLA-DRB1*01:01 (setting [1]) turned out to be 538 nM; on HLA-DRB1*04:01 (setting [2]) it was 6480 nM.
For PPGPQGPAGEQGPRG [Collagen 121 WT], the figures for the IC50 at HLA-DRB1*01:01 (setting [1]) and on HLA-DRB1*04:01 (setting [2]) were 22400 nM and greater than 40000 nM, respectively.
The matching figures for PTGKQGDRGEAGAQG [Collagen 1081 WT]: 31000 nM and greater than 40000 nM.
